In US4424351A, “Pyrido[3,4-e]-as-triazines” (Egyt Gyogyszervegyeszeti Gyar, priority 1979, dated 1984):

Legend:
white mice = assay: motility inhibiting effect (orientation reflex, eight-channel Dews apparatus); type: in vivo; details: for Therapeutical index (LD50/ED50), motility inhibiting effect: LD50/ED50, Dews apparatus, mice p.o.; for ED50: Mus musculus, 0.5 h, white mice, oral, pre-treatment of 30 minutes, light beam interceptions, read-out: ED50 p.o. (motility inhibiting effect)
Method: The effect of the new compounds exerted on the orientation reflex was tested on white mice in an eight-channel Dews apparatus, according to the method of Borsy et al. (Arch. Int. Pharmacodyn. 124, 1-2 /1960/). The number of light beam interceptions, caused by the movement of the animals, was recorded after a pre-treatment of 30 minutes. The test groups consisted of 3 mice. The ED50 values obtained in the investigation of motility-inhibiting effect, furthermore the therapeutical indices (LD50 /ED50) calculated therefrom are listed in Table 4.

mice [1] = assay: potentiation of hexobarbital-induced narcosis (method of Kaergaard et al.); type: in vivo; details: for Therapeutical index (LD50/ED50), potentiation of hexobarbital-induced narcosis: LD50/ED50, mice p.o.; for ED50: Mus musculus, mice, oral, then 40 mg/kg hexobarbital i.v., 150% prolongation of sleeping time = positive, read-out: ED50 p.o. (potentiation of hexobarbital-induced narcosis)
Method: The hexobarbital-induced narcosis potentiating effect of the new compounds was tested by the method of Kaergaard et al. (Arch. Int. Pharmacodyn. 2, 170 /1967/) on groups consisting of 6 mice each. The animals belonging to the control group received an oral dosage of 20 ml/kg of 0.9% aqueous sodium chloride solution, whereas the other animals were treated orally with the compound to be tested. Thereafter 40 mg/kg of hexobarbital (5-/1-cyclohexenyl/-[…]) were administered intravenously into the animals. A 150% prolongation of the sleeping time, related to the average value observed in the controls, was regarded as positive response. The number of animals giving positive response was compared to the total number of the animals treated.

mice [2] = assay: analgesic effect, writhing test (acetic acid i.p.); type: in vivo; details: for ED50: Mus musculus, mice, oral 1 h before 0.4 ml of 0.5% acetic acid i.p., dosage decreasing number of writhings by 50%, read-out: ED50 p.o. (analgesic effect); for Therapeutical index (LD50/ED50), analgesic effect: LD50/ED50, writhing test, mice p.o.
Method: The analgesic effect of the new compounds according to the invention was investigated on mice by the so-called writhing test. […] The animals were treated orally with the compound to be tested one hour before the introduction of acetic acid. The animals belonging to the control group received vehicle only.

rats = assay: antiphlogistic effect, carrageenine-induced paw swelling (method of Winter); type: in vivo; details: Rattus norvegicus, oral, paw volume before and 3 h after 0.1 ml 1% carrageenine, read-out: Dosage exerting 30% inhibition (antiphlogistic effect)
Method: The antiphlogistic effect of the new compounds according to the invention was investigated on rats by the method of Winter (J. Pharm. Exp. […] The volume of the treated paw was measured by […] before and 3 hours after challenge. The compounds to be tested were administered orally into the animals.

[3] = system: animals treated with tetrabenazine; assay: tetrabenazine-antagonizing effect (closed palpebral fissures); type: in vivo; details: for Therapeutical index (LD50/ED50), tetrabenazine-antagonizing effect: LD50/ED50, p.o.; for ED50: Mus musculus, oral, 30 min before 50 mg/kg tetrabenazine p.o., readings at 30, 60, 90 and 120 min summed
Method: The tetrabenzine-antagonizing effect of the new compounds was tested on groups consisting of 10 mice each. The animals belonging to the control group received an oral dosage of 20 ml/kg of 0.9% aqueous sodium chloride solution, whereas the other animals were treated orally with the compound to be tested. 30 minutes after the introduction of the active agent or the vehicle 50 mg/kg of tetrabenazine (3-isobutyl-9,10-[…]-1,2,3,4,6,7-hexahydrobenzo[a]quinolisine-2-one) were administered orally into the animals, and the animals with closed palpebral fissures were counted 30, 60, 90 and 120 minutes after the administration of tetrabenazine. The data obtained in the individual measuring times were added, and the percentage inhibition related to the controls was calculated.

in vivo = details: mouse, mice, oral
Method: The acute toxicity of the new compounds having the general formula (I) was tested on mice. The substances to be tested were administered orally to the animals.

Structure (SMILES)	Therapeutical index (LD50/ED50), motility inhibiting effect (white mice)	ED50 (white mice)	Therapeutical index (LD50/ED50), potentiation of hexobarbital-induced narcosis (mice [1])	ED50 (mice [1])	ED50 (mice [2])	ED30 (rats)	Therapeutical index (LD50/ED50), tetrabenazine-antagonizing effect [3]	ED50 [3]	LD50 (in vivo)	Therapeutical index (LD50/ED50), analgesic effect (mice [2])
CCCC(C)(COC(N)=O)COC(N)=O [Meprobamate, reference compound]	14.1	270 mg/kg	4.1	270 mg/kg	–	–	–	–	–	–
CCCCC1C(=O)N(c2ccccc2)N(c2ccccc2)C1=O [Phenylbutazone, reference compound]	–	–	–	–	65 mg/kg	90 mg/kg	–	–	–	–
CCC(=O)N1N=C(c2ccccc2)Nc2cnccc21.Cl [12 (HCl), 3-phenyl-1-propionyl-1,4-dihydro-pyrido[3,4-e]-as-triazine hydrochloride]	40	50 mg/kg	200	10 mg/kg	–	30 mg/kg	50	40 mg/kg	2000 mg/kg	–
CCC(=O)N1N=C(C)Nc2cnccc21 [Example 11, 3-Methyl-1-propionyl-1,4-dihydropyrido[3,4-e]-as-triazine]	–	–	25	20 mg/kg	–	30 mg/kg	–	–	500 mg/kg	–
CCCC(=O)N1N=C(c2ccccc2)Nc2cnccc21 [Example 19, 3-phenyl-1-butyryl-1,4-dihydropyrido[3,4-e]-as-triazine]	16.67	90 mg/kg	10	150 mg/kg	75 mg/kg	13 mg/kg	75	20 mg/kg	1500 mg/kg	20
CN(C)CCC=C1c2ccccc2CCc2ccccc21 [Amitryptiline, reference compound]	–	–	–	–	–	–	–	12 mg/kg	–	–
CCC(=O)N1N=C(c2ccccc2)Nc2cnccc21 [Example 12, 3-phenyl-1-propionyl-1,4-dihydropyrido[3,4-e]-as-triazine]	>57.4	35 mg/kg	32.3	62 mg/kg	50 mg/kg	26 mg/kg	–	–	> 2000 mg/kg	above 40
CC(=O)N1C=NN(C(C)=O)c2ccncc21 [Example 1, 1,4-diacetyl-1,4-dihydropyrido[3,4-e]-as-triazine]	–	–	11.4	25 mg/kg	–	25 mg/kg	–	–	360 mg/kg	–
CCC(=O)N1C=NN(C(=O)CC)c2ccncc21 [Example 18, 1,4-dipropioyl-1,4-dihydropyrido[3,4-e]-as-triazine]	–	–	–	–	6 mg/kg	12 mg/kg	–	–	450 mg/kg	75
CC(=O)N1N=C(c2ccccc2)Nc2cnccc21 [Example 17, 3-phenyl-1-acetyl-1,4-dihydropyrido[3,4-e]-as-triazine]	46.67	30 mg/kg	40	35 mg/kg	23 mg/kg	–	25	56 mg/kg	1400 mg/kg	60.87
